Experimental data reported in article PMC5974752, “Bax/Tubulin/Epithelial-Mesenchymal Pathways Determine the Efficacy of Silybin Analog HM015k in Colorectal Cancer Cell Growth and Metastasis” (Frontiers in Pharmacology, 2018).

Assays:
[1] = tested on: HCT116 cells; assay: IncuCyte Cytotox green real time cell death; assay type: cell-based, human
Procedure: For real time quantification of cell death, the Incucyte Cytotox green reagent was used. […] The plasma membrane integrity is decreased in unhealthy cells, allowing entry of the IncuCyte Cytotox reagent, yielding a 100- to 1,000-fold increase in fluorescence upon binding to deoxyribonucleic acid (DNA) (at an excitation maximum of 491 nm and an emission maximum of 509 nm). The HCT116 cells were seeded at a density of 1,000 cell/well and allowed to grow overnight. […] The cells were then incubated in a IncuCyte Zoom live cell imaging apparatus and pictures were taken every 2 h for up to 50 h.The IncuCyte® integrated analysis software was used to quantify the fluorescent objects and minimize the background fluorescence (IncuCyte ZOOM version 2016A, Essen BioScience, Ann Arbor, MI 48108, USA).

[2] = tested on: CHO; assay: MTT assay, normal cell line; assay type: cell-based, Chinese hamster; conditions: Cricetulus griseus, 72 h incubation, mean ± SD of three experiments
Procedure: The 3-(4,5-dimethylthiazol-2-yl)-2,5-diphenyltetrazolium bromide (MTT) assay was used to determine the sensitivity of the different CRC cells to the novel silybin derivatives (Hussein et al., [2017]; Manivannan et al., [2017]). The cells were seeded at a density of 4,000–5,000 cells/well in 96 well plates and incubated with serial dilutions of the compounds (0, 0.1, 0.3, 1, 3, 10, 30, and 100 μM). The MTT dye (4 mg/ml) was added after 72 h of incubation and incubated with the cells for an additional 4 h at 37°C. Following incubation, the media was discarded and the formazan crystals were dissolved by adding 100 μL of DMSO to each well. A DTX 880 multimode detector (Beckman Coulter Life, Indianapolis IN, USA) was used to determine the absorbance readings at a wavelength of 570 nm. The IC50 values were determined based on 3 separate experiments, with each experiment done in triplicate. The selectivity of the compounds was determined by comparing their cytotoxicity for CRC to normal epithelial cell lines (CHO, and CRL1459).

[3] = tested on: PARP; assay: Western blot in HCT116 cells (nuclear fraction); assay type: cell-based, human; conditions: 4 μM, vs control
Procedure: (§1) HCT116 cells were lysed to obtain cytoplasmic and nuclear protein fractions, according to the protocol used in previous publications (Alhadidi and Shah, [2017]). Briefly, the cells were seeded in and incubated with 15k for overnight at 4μM. The cells were washed using ice-cold PBS and scraped using a cell scraper and collected in 15ml tubes. The cells were centrifuged and the PBS was discarded and replaced with 400 μl of buffer A (10 mM HEPES, pH 7.9, 0.1 mM EDTA, 0.1 mM EGTA, 10 mM KCl, 1 mM dithiothreitol, and 0.5 mM phenylmethylsulfonyl fluoride) in each tube. The cells were allowed to swell under in the buffer for 15 min on ice. Subsequently, 0.1% Nonidet P-40 was added to each suspension for 1 min to disturb the plasma membrane. The nuclei were precipitated by centrifugation at 13,000 rpm for 1 min at 4°C. The cytoplasmic proteins were collected in the supernatant and stored at −80°C. Two hundred μl of Buffer B (20 mM HEPES, pH 7.9, 1 mM EDTA, 1 mM EGTA, 400 mM NaCl, 1 mM dithiothreitol, and 1 mM phenylmethylsulfonyl fluoride) was added to the pellets and left for 30 min on ice with periodic mixing. […] The bicinchoninic acid (BCA) quantification assay was used to determine the concentration of protein in the cell extracts. […] Finally, proteins were quantified using the image J software. Data were calculated as ratios to β-actin.

[4] = tested on: LOVO cells; assay: Wound healing assay; assay type: cell-based, human; conditions: 2 and 4 μM, 24 h and 48 h, vs vehicle
Procedure: In brief, the metastatic CRC cells (LOVO) were seeded in 6 well plates and allowed to grow as a monolayer until they reached 100% confluence. Upon confluence, 200 μl sterile tips were used to create a wound by gentle scratching of the complete cell monolayer. Sterile PBS was used to wash the cells several times to remove any floating cells. Different concentrations of the test compound were prepared in the culture media and added immediately after wound formation. The closure of the wound was observed by taking pictures at different time points by an EVOS microscope. Finally, the area of the wounds at different time points was calculated using Image J software (NIH, Bethesda, Maryland, USA).

[5] = tested on: β-catenin; assay: Western blot in HCT116 cells (nuclear); assay type: cell-based, human; conditions: 4 μM, p < 0.001 vs control
Procedure: as §1

[6] = tested on: HCT116 cells; assay: Colony formation assay; assay type: cell-based, human; conditions: 2 and 4 μM, 12 h incubation, colonies 10–14 days, vs vehicle control
Procedure: In this assay, HCT116 cells were seeded in 6 well plates at a density of 250,000 cells/plate and allowed to grow overnight. Compounds 15j and 15k (0, 2 or 4 μM) were added the following day. After 12 h of incubation, the medium was discarded and cells were trypsinized with 0.25% trypsin, 2.21 mM EDTA, 1X, harvested, counted and reseeded in 6 well plates at a low density (500 cell/well). The cells were allowed to form colonies for 10–14 days at 37°C, with the medium being changed every other day. Subsequently, methanol was used to fix the colonies formed in each plate, followed by dyeing the colonies with 0.1% crystal violet dye for 30 min. Finally, colonies were viewed and counted under an EVOS microscope (Themo Fisher Scientific, Wayne, MI, USA). The colony formation rate equation was applied for each compound: Colony formation rate = number of colonies/number of seeded cells × 100 %.

[7] = tested on: HCT116 cells; assay: Hoechst staining of nuclear condensation; assay type: cell-based, human; conditions: 2 or 4 μM, overnight, vs vehicle
Procedure: Nuclear condensation was detected using Hoechst 33258 DNA dye. HCT116 cells were seeded at 1 × 10^5 cells/well in 6-well plates and incubated overnight at 37°C. The following day, cells were exposed to 15k or 15j (0, 2, and 4 μM) and further incubated overnight at 37°C. The cells were fixed and stained with Hoechst 33258 for at least 30 min. An EVOS digital microscope was used to detect the stained nucleus fluorescence at wavelengths of 460–490 nm.

For `O=C(/C=C/c1cccc(OCc2ccccc2)c1)c1ccc(O)cc1` [Compound 15k], the “time of significant difference in the number of dead cells” value ([1]; 2 μM, vs vehicle) was 24 h, the “time of significant increase in cell death” value ([1]; 4 and 8 μM, vs control cells) was 12 h and the IC50 [2] was 8.1 ± 1.2 µM. For the same compound, the “total PARP” value [3] was “significantly reduced”, the “cell migration, wound closure” value [4] was “migrated significantly slower” and the “nuclear β-catenin full-length protein (p1 and p2)” value [5] was “induced the cleavage of the full-length protein”. The colony formation rate [6] was “decreased significantly” and the “nuclear condensation / fragmentation” value [7] was “significant increase in blue fluorescence, as well as highly condensed, fragmented nuclei chromatin”.
